According to PubChem BioAssay (NCI):
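Dose response: 5 concentrations. Exposure: 48 h. Format: 96-well plates. Endpoint: linear interpolation; highest concentration if not reached. Abbreviation: GI50, concentration required for 50% inhibition of growth. The concentration for full growth arrest is given as TGI.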

Legend:
Test in all cases: inhibition of tumour cell growth, NCI panel, 48 h
NCI-H226 lung = system: NCI-H226 lung
HS 578T breast = system: HS 578T breast
OVCAR-5 ovarian = system: OVCAR-5 ovarian
SF-295 CNS = system: SF-295 CNS
OVCAR-4 ovarian = system: OVCAR-4 ovarian
MOLT-4 leukemia = system: MOLT-4 leukemia
SN12C renal = system: SN12C renal
MCF7 breast = system: MCF7 breast
K-562 leukemia = system: K-562 leukemia
T-47D breast = system: T-47D breast
BT-549 breast = system: BT-549 breast
786-0 renal = system: 786-0 renal
OVCAR-3 ovarian = system: OVCAR-3 ovarian
MALME-3M melanoma = system: MALME-3M melanoma
M14 melanoma = system: M14 melanoma
SK-MEL-2 melanoma = system: SK-MEL-2 melanoma
U251 CNS = system: U251 CNS
NCI-H522 lung = system: NCI-H522 lung
COLO 205 colon = system: COLO 205 colon
A549 NSCLC = system: A549 NSCLC
DU-145 prostate = system: DU-145 prostate
SK-MEL-5 melanoma = system: SK-MEL-5 melanoma
MDA-MB-231 breast = system: MDA-MB-231 breast
HT29 colon = system: HT29 colon
HOP-62 NSCLC = system: HOP-62 NSCLC
CCRF-CEM leukemia = system: CCRF-CEM leukemia
RPMI-8226 leukemia = system: RPMI-8226 leukemia
SR leukemia = system: SR leukemia
KM12 colon = system: KM12 colon
HCC-2998 colon = system: HCC-2998 colon
SK-MEL-28 melanoma = system: SK-MEL-28 melanoma
HL-60(TB) leukemia = system: HL-60(TB) leukemia
HOP-92 NSCLC = system: HOP-92 NSCLC
PC-3 prostate = system: PC-3 prostate
HCT-116 colon = system: HCT-116 colon
UO-31 renal = system: UO-31 renal
ACHN renal = system: ACHN renal
NCI/ADR-RES ovarian = system: NCI/ADR-RES ovarian
SNB-75 CNS = system: SNB-75 CNS
SK-OV-3 ovarian = system: SK-OV-3 ovarian
NCI-H460 lung = system: NCI-H460 lung
A498 renal = system: A498 renal
UACC-62 melanoma = system: UACC-62 melanoma
SF-268 CNS = system: SF-268 CNS
TK-10 renal = system: TK-10 renal
RXF 393 renal = system: RXF 393 renal
CAKI-1 renal = system: CAKI-1 renal
EKVX NSCLC = system: EKVX NSCLC
NCI-H23 lung = system: NCI-H23 lung
SNB-19 CNS = system: SNB-19 CNS
SF-539 CNS = system: SF-539 CNS
MDA-MB-435 = system: MDA-MB-435
UACC-257 melanoma = system: UACC-257 melanoma
HCT-15 colon = system: HCT-15 colon
IGROV1 ovarian = system: IGROV1 ovarian
SW-620 colon = system: SW-620 colon
LOX IMVI melanoma = system: LOX IMVI melanoma
OVCAR-8 ovarian = system: OVCAR-8 ovarian

Structure (SMILES): COc1ccc(-c2nnc(N3CCN(C(=O)CN4CCN(c5ccc(OC)cc5)CC4)CC3)nc2-c2ccc(OC)cc2)cc1
- GI50 (NCI-H226 lung): 5.53 µM
- TGI (NCI-H226 lung): 34.5 µM
- GI50 (HS 578T breast): 2840 nM
- TGI (HS 578T breast): 9.2 µM
- GI50 (OVCAR-5 ovarian): 27.6 µM
- TGI (OVCAR-5 ovarian): 53.1 µM
- GI50 (SF-295 CNS): 20.3 µM
- TGI (SF-295 CNS): > 72.1 µM
- GI50 (OVCAR-4 ovarian): 3.47 µM
- TGI (OVCAR-4 ovarian): 12.5 µM
- GI50 (MOLT-4 leukemia): 1630 nM
- TGI (MOLT-4 leukemia): 3.8 µM
- GI50 (SN12C renal): 3.2 µM
- TGI (SN12C renal): 15.5 µM
- GI50 (MCF7 breast): 1760 nM
- TGI (MCF7 breast): 3.56 µM
- GI50 (K-562 leukemia): 2140 nM
- TGI (K-562 leukemia): 4.44 µM
- GI50 (T-47D breast): 2780 nM
- TGI (T-47D breast): 9.36 µM
- GI50 (BT-549 breast): 3.53 µM
- TGI (BT-549 breast): 24 µM
- GI50 (786-0 renal): 15.3 µM
- TGI (786-0 renal): 40.6 µM
- GI50 (OVCAR-3 ovarian): 2100 nM
- TGI (OVCAR-3 ovarian): 4 µM
- GI50 (MALME-3M melanoma): 3.17 µM
- TGI (MALME-3M melanoma): 23.1 µM
- GI50 (M14 melanoma): 2600 nM
- TGI (M14 melanoma): 6.28 µM
- GI50 (SK-MEL-2 melanoma): 10.2 µM
- TGI (SK-MEL-2 melanoma): 44.1 µM
- GI50 (U251 CNS): 5.31 µM
- TGI (U251 CNS): 66.1 µM
- GI50 (NCI-H522 lung): 3.32 µM
- TGI (NCI-H522 lung): 9.25 µM
- GI50 (COLO 205 colon): 6.36 µM
- TGI (COLO 205 colon): 29.7 µM
- GI50 (A549 NSCLC): 25.6 µM
- TGI (A549 NSCLC): > 100 µM
- GI50 (DU-145 prostate): 12.2 µM
- TGI (DU-145 prostate): 26.5 µM
- GI50 (SK-MEL-5 melanoma): 2400 nM
- TGI (SK-MEL-5 melanoma): 6.83 µM
- GI50 (MDA-MB-231 breast): 11.7 µM
- TGI (MDA-MB-231 breast): 41.2 µM
- GI50 (HT29 colon): 3.39 µM
- TGI (HT29 colon): 10.8 µM
- GI50 (HOP-62 NSCLC): 16.5 µM
- TGI (HOP-62 NSCLC): 44 µM
- GI50 (CCRF-CEM leukemia): 3.02 µM
- TGI (CCRF-CEM leukemia): 6.06 µM
- GI50 (RPMI-8226 leukemia): 2370 nM
- TGI (RPMI-8226 leukemia): 6.5 µM
- GI50 (SR leukemia): 2100 nM
- TGI (SR leukemia): 4.04 µM
- GI50 (KM12 colon): 2930 nM
- TGI (KM12 colon): 8.4 µM
- GI50 (HCC-2998 colon): 18.8 µM
- TGI (HCC-2998 colon): 47.2 µM
- GI50 (SK-MEL-28 melanoma): 13.4 µM
- TGI (SK-MEL-28 melanoma): 34.6 µM
- GI50 (HL-60(TB) leukemia): 1880 nM
- TGI (HL-60(TB) leukemia): 6.5 µM
- GI50 (HOP-92 NSCLC): 16.1 µM
- TGI (HOP-92 NSCLC): 35.2 µM
- GI50 (PC-3 prostate): 8.49 µM
- TGI (PC-3 prostate): 26.9 µM
- GI50 (HCT-116 colon): 1710 nM
- TGI (HCT-116 colon): 3.11 µM
- GI50 (UO-31 renal): 12.5 µM
- TGI (UO-31 renal): 39.7 µM
- GI50 (ACHN renal): 18.1 µM
- TGI (ACHN renal): 50.8 µM
- GI50 (NCI/ADR-RES ovarian): 9.89 µM
- TGI (NCI/ADR-RES ovarian): 31.9 µM
- GI50 (SNB-75 CNS): 15.6 µM
- TGI (SNB-75 CNS): 44.8 µM
- GI50 (SK-OV-3 ovarian): 20.8 µM
- TGI (SK-OV-3 ovarian): 45 µM
- GI50 (NCI-H460 lung): 15.4 µM
- TGI (NCI-H460 lung): > 62.3 µM
- GI50 (A498 renal): 25.8 µM
- TGI (A498 renal): 50.4 µM
- GI50 (UACC-62 melanoma): 12.1 µM
- TGI (UACC-62 melanoma): 53.1 µM
- GI50 (SF-268 CNS): 3.62 µM
- TGI (SF-268 CNS): 14.2 µM
- GI50 (TK-10 renal): 19 µM
- TGI (TK-10 renal): 62.5 µM
- GI50 (RXF 393 renal): 5.38 µM
- TGI (RXF 393 renal): 38.8 µM
- GI50 (CAKI-1 renal): 15.5 µM
- TGI (CAKI-1 renal): 51.1 µM
- GI50 (EKVX NSCLC): 7.86 µM
- TGI (EKVX NSCLC): > 65.9 µM
- GI50 (NCI-H23 lung): 9.73 µM
- TGI (NCI-H23 lung): 33.4 µM
- GI50 (SNB-19 CNS): 20.7 µM
- TGI (SNB-19 CNS): 46.4 µM
- GI50 (SF-539 CNS): 14.1 µM
- TGI (SF-539 CNS): 33.2 µM
- GI50 (MDA-MB-435): 4.01 µM
- TGI (MDA-MB-435): > 55.9 µM
- GI50 (UACC-257 melanoma): 17.5 µM
- TGI (UACC-257 melanoma): 39.5 µM
- GI50 (HCT-15 colon): 6.96 µM
- TGI (HCT-15 colon): 34.6 µM
- GI50 (IGROV1 ovarian): 6.7 µM
- TGI (IGROV1 ovarian): > 78.6 µM

Structure (SMILES): O=C(c1cc2ccccc2cc1O)N1CCCCC1
- TGI (NCI-H226 lung): 85.9 µM
- TGI (HS 578T breast): > 100 µM
- TGI (SF-295 CNS): > 100 µM
- TGI (OVCAR-4 ovarian): > 100 µM
- TGI (MOLT-4 leukemia): 42.7 µM
- TGI (MCF7 breast): > 100 µM
- TGI (K-562 leukemia): 48.6 µM
- TGI (T-47D breast): > 100 µM
- TGI (BT-549 breast): 84.2 µM
- TGI (786-0 renal): > 100 µM
- TGI (M14 melanoma): 64.9 µM
- TGI (SK-MEL-2 melanoma): 46.5 µM
- TGI (U251 CNS): > 100 µM
- TGI (COLO 205 colon): > 100 µM
- TGI (SW-620 colon): > 100 µM
- TGI (DU-145 prostate): > 100 µM
- TGI (SK-MEL-5 melanoma): 54.6 µM
- TGI (MDA-MB-231 breast): > 100 µM
- TGI (HT29 colon): > 100 µM
- TGI (HOP-62 NSCLC): > 100 µM
- TGI (CCRF-CEM leukemia): 42.6 µM
- TGI (RPMI-8226 leukemia): 56.3 µM
- TGI (LOX IMVI melanoma): > 100 µM
- TGI (SR leukemia): 55.9 µM
- TGI (KM12 colon): > 100 µM
- TGI (HCC-2998 colon): 49.8 µM
- TGI (SK-MEL-28 melanoma): > 100 µM
- TGI (HL-60(TB) leukemia): 46.9 µM
- TGI (HOP-92 NSCLC): 43.3 µM
- TGI (PC-3 prostate): > 100 µM
- TGI (HCT-116 colon): > 100 µM
- TGI (OVCAR-8 ovarian): > 100 µM
- TGI (UO-31 renal): > 100 µM
- TGI (ACHN renal): > 100 µM
- TGI (NCI/ADR-RES ovarian): 94.3 µM
- TGI (SNB-75 CNS): > 100 µM
- TGI (SK-OV-3 ovarian): > 100 µM
- TGI (NCI-H460 lung): > 100 µM
- TGI (A498 renal): 63.2 µM
- TGI (UACC-62 melanoma): > 100 µM
- TGI (SF-268 CNS): > 100 µM
- TGI (TK-10 renal): > 100 µM
- TGI (RXF 393 renal): > 100 µM
- TGI (CAKI-1 renal): > 100 µM
- TGI (EKVX NSCLC): 78.1 µM
- TGI (SNB-19 CNS): > 100 µM
- TGI (SF-539 CNS): > 100 µM
- TGI (MDA-MB-435): > 100 µM
- TGI (UACC-257 melanoma): > 100 µM
- TGI (HCT-15 colon): > 100 µM
- TGI (IGROV1 ovarian): 50 µM
